Where “and” joins values, the source holds several entries; their conditions need not be identical. Equal values may be shown once.
Assays:
[1] = biological target: T1, iNOS (Mus musculus, UniProt P29477); experiment: In vivo brain PET/MR imaging of LPS-induced iNOS expression (SUV, SUR, AUC) incl. aminoguanidine blocking; design: species or system C57BL/6 mice
T1 construct: tracer to detect iNOS expression in mice injected with lipopolysaccharide (LPS) to induce brain inflammation; from tissue; host or cells: brain of living C57BL/6 mice (LPS-induced); fixed brain sections for IHC
Experimental: For the imaging experiments, twelve C57BL/6 mice were injected i.p. with 0.9% NaCl, eighteen mice were injected i.p. with 0.1 mL of LPS in saline (5 mg/kg), and six mice were injected i.p. with aminoguanidine (Sigma-Aldrich) 30 min prior to 5 mg/kg LPS. In vivo imaging was performed 3 h or 24 h after injection of LPS; then, the mice were immediately humanely euthanized and the brains were removed for immunostaining.
(§1) Mice (n = 30) were anesthetized with 2% isoflurane (in oxygen) and injected with [^18F]FBAT (11.1 MBq; 0.3 mCi) via the tail vein. Dynamic PET images were obtained in fully three-dimensional list mode for 30 min using a small animal SuperArgus 2r PET system (SEDECAL, Madrid, Spain) or 7T PETMR Inline (Bruker, Rheinstetten, Germany; energy window, 350-650 keV; timing window, 6 ns). Images were acquired every 10 s for 12 images, 60 s for three images, 300 s for three images, or 600 s for […]. The anatomical structure of the brain was imaged using T2 MRI. The MRI sequences included 0.5 mm thick T2 Turbo RARE high-resolution images (TR = 3000 ms, TE, 46 ms, matrix, 512 × 256, average, 40, slice number, 30, field of view, 20 × 10 mm).
After determining the optimal imaging time point for [^18F]FBAT, we performed a blocking study using a selective iNOS inhibitor to assess the specificity of the tracer for iNOS. Separate 7T PET/MR studies with [^18F]FBAT were performed for mice (n = 6) administered a bolus of aminoguanidine (50 mg/kg i.p.) 30 min prior to administration of [^18F]FBAT. The time course of [^18F]FBAT radioactivity in the brain after administration of the iNOS inhibitor was assessed and compared to that of the mice in the LPS 3 h group.
(§2) Images were reconstructed by the Fourier rebinning algorithm and two-dimensional filtered back projection using a ramp filter with a cutoff at Nyquist. The regional radioactivity concentration (kBq/cc) of [^18F]FBAT was estimated from the mean pixel values within the region of interest (ROI) corresponding to MR images of various organs and regions of the brain. ROI for carotid artery, heart muscle, lung, liver, spleen, and kidney were defined and time activity curves (TACs) generated. TACs for whole brain, cortex, cerebellum, and brainstem were also determined as described above.
(§3) The concentration of radioactivity (kBq/cc, μCi/cc) was converted to standardized uptake value (SUV), and the mean and standard deviation (SD) of radiotracer accumulation values were calculated for different organs and regions of the brain. Data were analyzed with PMOD 4.0 software (PMOD Technologies Ltd., Zurich, Switzerland).

[2] = biological target: T1, iNOS; experiment: Pharmacokinetic two-compartment modeling of dynamic PET; assay type: in vivo, C57BL/6 mice; conditions: mouse whole brain
Excerpt: A time activity curve (TAC) for a carotid artery region of interest was used to determine the dynamic PET image-derived [^18F]FBAT input function in uncorrected blood plasma. The corresponding TACs for [^18F]FBAT were derived by applying images from mice administered [^18F]FBAT to the image-derived plasma TAC. Model parameters were estimated for influx constant k1 (mL/cm^3/min^−1), efflux (k2) (min^−1) rate of radioligand diffusion between plasma and brain compartment. Exchange between compartments k3 (min^−1) and k4 (min^−1) was also estimated. The net influx constant, Ki (min^−1), parameter that describes the rate of binding to the iNOS was calculated as (2) KiFBAT=k1FBAT×k3FBAT/k2FBAT+k3FBAT.
Compartmental modeling, pharmacokinetic analyses, and generation of pixel-by-pixel parametric images were accomplished using PMOD 4.0 software (PMOD Technologies Ltd., Zurich, Switzerland).

[3] = Whole-body dynamic PET/MR biodistribution and blood clearance; assay type: in vivo, C57BL/6 mice
Experimental: as §1, §2, §3

[4] = biological target: T1, iNOS; experiment: Logan graphical analysis of dynamic PET (Vt); assay type: in vivo, C57BL/6 mice
Experimental: The dynamic PET imaging data were analyzed using Logan's model-independent graphical analysis to assess whether [^18F]FBAT PET/MR could be used to detect differences in expression of iNOS in brain regions (Cbra(t)). Cardiac blood TACs (Cref(t)) were used as the reference tissue. The slope of the linear portion of the Logan plot represents the total distribution (Vt). Then, the slope of the linear portion of the plot can be calculated using (1) ∫0tCreferencetdt/CreferenceT=DVR∫0tCbrain regiontdt/CreferenceT+C.

[5] = LPS 5 mg/kg, 3 h, 30 min post i.v. tracer
[6] = LPS 5 mg/kg, 24 h, 30 min post i.v. tracer
[7] = LPS 3 h + aminoguanidine 50 mg/kg pretreatment
[8] = control mice, 30 min post i.v. tracer

Compound: NC1=NC2(CCN(C(=O)c3ccc([18F])cc3)CC2)Nc2c(F)ccc(F)c21 [[^18F]FBAT, (4′-amino-5′,8′-difluoro-1′H-spiro[piperidine-4,2′-quinazolin]-1-yl)(4-[^18F]fluorophenyl)methanone]
- SUV, brainstem [1, 5]: 0.98 ± 0.09 SUV and 0.976 ± 0.244^∗ SUV
- SUV, cerebellum [1, 5]: 0.60 ± 0.03 SUV and 0.600 ± 0.066^∗ SUV
- SUV, cortex [1, 5]: 0.90 ± 0.07 SUV and 0.904 ± 0.251^∗ SUV
- SUV, whole brain [1, 5]: 1.43 ± 0.11 SUV and 1.428 ± 0.410^∗∗∗ SUV
- SUV, brainstem [1, 6]: 0.67 ± 0.07 SUV and 0.671 ± 0.148 SUV
- SUV, cerebellum [1, 6]: 0.54 ± 0.02 SUV and 0.542 ± 0.052 SUV
- SUV, cortex [1, 6]: 0.62 ± 0.02 SUV and 0.620 ± 0.041 SUV
- SUV, whole brain [1, 6]: 0.90 ± 0.13 SUV and 0.900 ± 0.270 SUV
- SUV, brainstem [1, 7]: 0.35 ± 0.10 SUV and 0.350 ± 0.055 SUV
- SUV, cerebellum [1, 7]: 0.31 ± 0.09 SUV and 0.310 ± 0.037 SUV
- SUV, cortex [1, 7]: 0.32 ± 0.09 SUV and 0.320 ± 0.063 SUV
- SUV, whole brain [1, 7]: 0.31 ± 0.08 SUV and 0.312 ± 0.055 SUV
- SUR (SUVLPS to SUVcon), brainstem ([1]; LPS 24 h): 1.273 ± 0.163
- SUR (SUVLPS to SUVcon), cerebellum ([1]; LPS 24 h): 1.233 ± 0.112
- SUR (SUVLPS to SUVcon), cortex ([1]; LPS 24 h): 0.970 ± 0.303
- SUR (SUVLPS to SUVcon), whole brain ([1]; LPS 24 h): 1.351 ± 0.451
- SUR (SUV ratio to control), brainstem ([1]; control mice): 1.000
- SUR (SUV ratio to control), cerebellum ([1]; control mice): 1.000
- SUR (SUV ratio to control), cortex ([1]; control mice): 1.000
- SUR (SUV ratio to control), whole brain ([1]; control mice): 1.000
- SUV, brainstem [1, 8]: 0.540 ± 0.153 SUV
- SUV, cerebellum [1, 8]: 0.448 ± 0.115 SUV
- SUV, cortex [1, 8]: 0.604 ± 0.150 SUV
- SUV, whole brain [1, 8]: 0.709 ± 0.200 SUV
- AUC0-30min, 3 h LPS group vs control group ([1]; whole brain, average): 1.9 ± 0.21 fold
- k1 (influx rate constant) ([2]; LPS 5 mg/kg): 0.633 ± 0.002 min⁻¹
- k2 (efflux rate constant) ([2]; LPS 5 mg/kg): 0.608 ± 0.054 min⁻¹
- k3 ([2]; LPS 5 mg/kg): 0.006 ± 0.003^∗ min^−1
- k1 (influx rate constant) ([2]; control): 0.957 ± 0.250 min⁻¹
- k2 (efflux rate constant) ([2]; control): 0.777 ± 0.101 min⁻¹
- k3 ([2]; control): 2.86E − 05 ± 4.48E − 05 min^−1
- level of [^18F]FBAT in blood (carotid ROI) ([3]; 30 min post i.v. injection, brain imaging study): 0.30 ± 0.06 SUV
- radioactivity remaining in the blood pool ([3]; 30 min postinjection, whole-body biodistribution study): 0.298 ± 0.019 SUV
- time of peak radioactivity in heart muscle ([3]; after injection): ≤ 1 min
- blood clearance half-life, first phase (biexponential) ([3]; carotid, i.v.): 1.05 ± 0.58 min
- blood clearance half-life, second phase (biexponential) ([3]; carotid, i.v.): 24.9 ± 7.46 min
- time of peak accumulation in the lungs ([3]; postinjection): 1 to 2 min
- accumulation of radioactivity in skeletal structures ([3]; up to 30 min postinjection): No accumulation
- volume distribution Vt, brainstem ([4]; LPS 3 h): 0.435 ± 0.040^∗ mL/cm^3
- volume distribution Vt, cerebellum ([4]; LPS 3 h): 0.385 ± 0.016^∗∗ mL/cm^3
- volume distribution Vt, cortex ([4]; LPS 3 h): 0.391 ± 0.020^∗ mL/cm^3
- volume distribution Vt, whole brain ([4]; LPS 3 h): 0.404 ± 0.003 mL/cm^3
- volume distribution Vt, brainstem ([4]; LPS 3 h + AMG): 0.223 ± 0.036 mL/cm^3
- volume distribution Vt, cerebellum ([4]; LPS 3 h + AMG): 0.250 ± 0.055 mL/cm^3
- volume distribution Vt, cortex ([4]; LPS 3 h + AMG): 0.222 ± 0.024 mL/cm^3
- volume distribution Vt, whole brain ([4]; LPS 3 h + AMG): 0.203 ± 0.032 mL/cm^3
- volume distribution Vt, brainstem ([4]; LPS 24 h): 0.315 ± 0.065 mL/cm^3
- volume distribution Vt, cerebellum ([4]; LPS 24 h): 0.288 ± 0.090 mL/cm^3
- volume distribution Vt, cortex ([4]; LPS 24 h): 0.264 ± 0.036^∗ mL/cm^3
- volume distribution Vt, whole brain ([4]; LPS 24 h): 0.274 ± 0.068 mL/cm^3
- average volume distribution Vt in brain regions ([4]; LPS group (implied), blood as reference tissue): 0.40 ± 0.02 mL/cm^3
- Vt in the brain regions ([4]; control animals): 0.29 ± 0.05 mL/cm^3
- volume distribution Vt, brainstem ([4]; control mice): 0.295 ± 0.026 mL/cm^3
- volume distribution Vt, cerebellum ([4]; control mice): 0.227 ± 0.001 mL/cm^3
- volume distribution Vt, cortex ([4]; control mice): 0.278 ± 0.006 mL/cm^3
- volume distribution Vt, whole brain ([4]; control mice): 0.346 ± 0.012 mL/cm^3
- Vt, 3 h LPS group vs control group ([4]; whole brain, average): 1.4 ± 0.22 fold

From publication PMC8328489, “Automated Synthesis and Initial Evaluation of (4′-Amino-5′,8′-difluoro-1′H-spiro[piperidine-4,2′-quinazolin]-1-yl)(4-[^18F]fluorophenyl)methanone for PET/MR Imaging of Inducible Nitric Oxide Synthase” (Molecular Imaging, 2021)
